Measured values as given in publication PMC2119337 (The Journal of Experimental Medicine, 1992).
No end group written: not given here.

Tests used:
(PL/J x SJL/J)F1 mice [1] = type: in vivo; details: Table 1, observed 30-35 d, three experiments
(PL/J x SJL/J)F1 mice [2] = test: Inhibition of EAE by coimmunization of competitor peptide with Ac1-11; type: in vivo; details: Table 2, Ac1-11 25 nmol alone or with competitor 500 nmol
[3] = molecular target: T1, A alpha uA beta u (MHC class II molecules) (Mus musculus, UniProt P06344+P14438); details: cited from earlier work
T1 sequence (P14438 1-227): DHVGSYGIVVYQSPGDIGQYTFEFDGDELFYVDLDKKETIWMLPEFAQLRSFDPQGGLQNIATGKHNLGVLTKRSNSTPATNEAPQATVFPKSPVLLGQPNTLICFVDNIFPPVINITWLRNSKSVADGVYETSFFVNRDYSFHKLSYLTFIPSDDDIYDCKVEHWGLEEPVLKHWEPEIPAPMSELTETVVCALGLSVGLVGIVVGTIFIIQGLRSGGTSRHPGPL
T1 sequence (P06344 28-263): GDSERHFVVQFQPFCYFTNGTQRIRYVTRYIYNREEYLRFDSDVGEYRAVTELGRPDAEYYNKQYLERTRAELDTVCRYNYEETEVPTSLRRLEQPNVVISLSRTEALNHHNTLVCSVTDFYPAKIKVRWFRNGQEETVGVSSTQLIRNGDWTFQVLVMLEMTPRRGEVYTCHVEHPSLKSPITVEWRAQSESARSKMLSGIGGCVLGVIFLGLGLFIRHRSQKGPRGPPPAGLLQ

## Ac1-11: immunodominant N-terminal myelin basic protein (MBP) peptide, wild type (Ac-MGNHSGKRELS; UniProt P04370 1-11, looked up, fragment)
(PL/J x SJL/J)F1 mice [1]; 100 nmol peptide in CFA s.c.
  Incidence of EAE (mice with disease/total): 27/31
(PL/J x SJL/J)F1 mice [1]; […]
  Percent incidence of EAE: 87%
(PL/J x SJL/J)F1 mice [2]
  Day of onset: 12.75
(PL/J x SJL/J)F1 mice [2]; grades 1-5
  Mean clinical scores: 3.4
[3]
  Binding to AαuAβu: poor binder
